Some test systems named below: U251 CNS; UACC-62 melanoma; HT29 colon; COLO 205 colon; BT-549 breast; SN12C renal; MCF7 breast; HCT-15 colon; LOX IMVI melanoma; SR leukemia.
Holding throughout (experiment): NCI-60 cell line screen, 48 h

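Grown in 96-well plates, cells were treated for 48 hours with each compound at five concentrations. Insufficient inhibition: endpoint recorded as highest concentration tested. GI50 marks 50% less growth. At the TGI there is no net growth.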

In the case of `CC1(C)Oc2ccc3c(=O)c4ccccc4oc3c2C1C(=O)O` (stereo not drawn), the TGI in the assay on U251 CNS, in the assay on UACC-62 melanoma, in the assay on HT29 colon, with COLO 205 colon, in the assay with BT-549 breast and in the assay with SN12C renal was greater than 100 µM each time. Moreover, in the assay on MCF7 breast, the TGI is greater than 100 µM.

With `COC(=O)C1=C(C)NC2(C)OC(C)(O)C(C(C)=O)C12C(C)=O` (stereo not drawn), the TGI with HCT-15 colon, in the assay with LOX IMVI melanoma, in the assay on U251 CNS, in the assay with UACC-62 melanoma, in the assay on HT29 colon and with COLO 205 colon was greater than 100 µM in each case. Moreover, the TGI with BT-549 breast, in the assay with SN12C renal and with MCF7 breast was greater than 100 µM in each case.

Regarding `C=C1C(=O)O[C@H]2C3C(=C(C)CC[C@@H]12)C(=O)[C@@H]1OC31C` (stereo partly drawn), the TGI in the assay with HCT-15 colon is 3.16 µM; in the assay with LOX IMVI melanoma, 5.79 µM; in the assay on U251 CNS, 26.3 µM; with UACC-62 melanoma, 5.69 µM; with HT29 colon, 4.28 µM; with COLO 205 colon it was 2.66 µM. The figures for the TGI with BT-549 breast, with SN12C renal and in the assay with MCF7 breast were 4.6 µM, 3.18 µM and 11.2 µM, respectively.

For the compound `O=C(O)CCCc1ccc2c(c1)CC1(C2)Cc2ccc(CCCC(=O)O)cc2C1`, the TGI in the assay with SR leukemia, in the assay on HCT-15 colon, in the assay with LOX IMVI melanoma, in the assay on U251 CNS, with UACC-62 melanoma and in the assay on HT29 colon was greater than 100 µM throughout. Besides, the TGI with COLO 205 colon, with SN12C renal and with MCF7 breast was greater than 100 µM in each case.

For `CC1(C)CC2(C)OC(=N)C1(C#N)C2(C#N)C#N` (stereo not drawn), the TGI with HCT-15 colon was determined as 4.84 µM; in the assay on LOX IMVI melanoma, 3.09 µM; in the assay on U251 CNS, 29.3 µM; in the assay with UACC-62 melanoma it was 24.9 µM; in the assay with HT29 colon it was 13.4 µM; with COLO 205 colon, 14.9 µM. Besides, the TGI was 21.7 µM in the assay on SN12C renal and 24.8 µM in the assay with MCF7 breast.

Consider `Oc1ccc2ccccc2c1OCc1nnc(CCCCCCCCc2nnc(COc3c(O)ccc4ccccc34)o2)o1`, for which the TGI in the assay on HCT-15 colon, in the assay on U251 CNS, in the assay on UACC-62 melanoma, with HT29 colon, with COLO 205 colon and with BT-549 breast was greater than 100 µM each time. The TGI in the assay on SN12C renal and in the assay on MCF7 breast was greater than 100 µM throughout.

For `C/C(=C\CNc1nc(Cl)nc2nc[nH]c12)CO`, the TGI with SR leukemia, with LOX IMVI melanoma, in the assay with UACC-62 melanoma, in the assay on HT29 colon, in the assay on COLO 205 colon and with SN12C renal was greater than 100 µM in each case. Besides, in the assay with MCF7 breast, the TGI was greater than 100 µM.

On to `O=C(C=P(c1ccccc1)(c1ccccc1)c1ccccc1)c1ccc(-c2ccc(F)cc2F)cc1`, for which the TGI in the assay on SR leukemia was 7.55 µM; in the assay with HCT-15 colon it was 7.81 µM; in the assay on U251 CNS, 13.9 µM; in the assay with UACC-62 melanoma, 4.25 µM; with HT29 colon, 3.94 µM; in the assay with COLO 205 colon it was 3.14 µM. Moreover, the TGI was 5.31 µM with SN12C renal and 7.95 µM in the assay with MCF7 breast.

Take `COC1=CC(=O)c2c(cc(COP(=O)(N(C)CCBr)N(C)CCBr)n2C)C1=O`: the TGI in the assay on HCT-15 colon came to 2.28 µM; in the assay on LOX IMVI melanoma it was 3.31 µM; in the assay on U251 CNS, 8.43 µM; in the assay with UACC-62 melanoma, 2.26 µM; in the assay on HT29 colon, 1.42 µM; in the assay on COLO 205 colon it was 2.56 µM. Further, the results for the TGI in the assay on BT-549 breast, in the assay with SN12C renal and with MCF7 breast were 3.94 µM, 3.76 µM and 8.42 µM, respectively.

For `CC(=O)[C@H]1CCC2[C@@H]3CC=C4C(O)C(OS(=O)(=O)O)CC[C@]4(C)C3CC[C@@]21C` (stereo partly drawn), the TGI in the assay with HCT-15 colon, with LOX IMVI melanoma, with U251 CNS, in the assay on UACC-62 melanoma, in the assay on HT29 colon and in the assay with COLO 205 colon was greater than 100 µM each time. For the same compound, the TGI in the assay with SN12C renal and with MCF7 breast was greater than 100 µM throughout.

In the case of `NC1CCCCC1N.O=S(=O)([O-])CCCN1CCN(CCO)CC1.O=S(=O)([O-])CCCN1CCN(CCO)CC1.[Pt+4]`, the GI50 with HCT-15 colon was 2.63 µM; in the assay on LOX IMVI melanoma, 5.97 µM; with U251 CNS, 14.9 µM; in the assay with UACC-62 melanoma it was 6.91 µM; in the assay on HT29 colon, 0.945 µM; with COLO 205 colon, 1.82 µM. For the same compound, the GI50 in the assay with SN12C renal is 7.56 µM; in the assay on MCF7 breast it was 3.26 µM. Further, the TGI in the assay with HCT-15 colon is greater than 61.4 µM; with LOX IMVI melanoma, greater than 100 µM; with U251 CNS, greater than 100 µM; in the assay with UACC-62 melanoma it was 33.7 µM; in the assay with HT29 colon, greater than 22.1 µM; with COLO 205 colon it was 19.6 µM. In addition, the TGI in the assay with SN12C renal and in the assay on MCF7 breast was greater than 100 µM throughout.

In the case of `C=C(C(=O)OC)[C@H]1CC/C(C)=C/CC/C(C)=C/CC[C@@]2(C)O[C@@H]2C1`, the TGI with HCT-15 colon came to 31.7 µM; in the assay with LOX IMVI melanoma, 28.8 µM; with U251 CNS, 44 µM; in the assay on UACC-62 melanoma, 26 µM; with HT29 colon, 34.4 µM; in the assay on COLO 205 colon, 28.6 µM. Also, the figures for the TGI with SN12C renal and in the assay on MCF7 breast were 31.2 µM and 37.8 µM, respectively.

With `O=c1/c(=C/c2ccc(-c3ccc(Cl)cc3Cl)o2)sc2n1[C@@H](c1ccc3c(c1)OCO3)C=C(c1cc(F)c(Cl)cc1Cl)N=2`, the TGI was greater than 100 µM in the assay on HCT-15 colon; greater than 100 µM with LOX IMVI melanoma; greater than 100 µM in the assay on U251 CNS; greater than 100 µM in the assay on UACC-62 melanoma; 74.7 µM in the assay on HT29 colon; greater than 100 µM in the assay with COLO 205 colon. Also, the TGI in the assay on BT-549 breast, with SN12C renal and in the assay on MCF7 breast was greater than 100 µM each time.

Regarding `CC(=O)Nc1ccc(/C=C(\NC(=O)c2ccccc2)C(=O)NNS(=O)(=O)c2ccc(C)cc2)cc1`, the TGI with SR leukemia was 37.8 µM; with HCT-15 colon, 41.1 µM; in the assay on LOX IMVI melanoma, 38.2 µM; in the assay with U251 CNS, greater than 100 µM; in the assay with UACC-62 melanoma it was greater than 100 µM; with HT29 colon, greater than 100 µM. The TGI in the assay on COLO 205 colon was 71.2 µM; in the assay with SN12C renal it was greater than 100 µM.
